The source of these data is ChEMBL document CHEMBL3046218, “Characterization of sensitivity of Rhizoctonia solani, causing rice sheath blight, to mepronil and boscalid” (Crop Prot, 2009).

Converted amounts (≈) assume the structure as drawn.

The test system of test [1] is Rhizoctonia solani. The experiment in a line: Antifungal activity against mepronil-resistant Rhizoctonia solani ZJR1 after 2 days. It is filed as functional, organism-based. To be noted: ZJR1, 48 h.
The subject of test [2] is Rhizoctonia solani. The experiment in a line: Antifungal activity against mepronil-sensitive wild type Rhizoctonia solani ZJ-1 after 2 days. It counts as functional, organism-based. Conditions: ZJ-1, 48 h.
For test [3], the system named is Rhizoctonia solani. The experiment in a line: Antifungal activity against mepronil-resistant Rhizoctonia solani ZJR3 after 2 days. Conditions: ZJR3, 48 h. It counts as functional, organism-based.
Test [4] has as its system Rhizoctonia solani. The experiment in a line: Antifungal activity against mepronil-resistant Rhizoctonia solani JSR3 after 2 days. It counts as functional, organism-based. Conditions: JSR3, 48 h.
For test [5], the system named is Rhizoctonia solani. The experiment in a line: Antifungal activity against mepronil-resistant Rhizoctonia solani JSR2 after 2 days. It counts as functional, organism-based. To be noted: JSR2, 48 h.
Test [6] concerns Rhizoctonia solani. The experiment in a line: Antifungal activity against mepronil-resistant Rhizoctonia solani JSR1 after 2 days. It is filed as functional, organism-based. To be noted: JSR1, 48 h.
For test [7], the system named is Rhizoctonia solani. The experiment in a line: Antifungal activity against mepronil-sensitive wild type Rhizoctonia solani JS7 after 2 days. It counts as functional, organism-based. Conditions: JS7, 48 h.
The test system of test [8] is Rhizoctonia solani. The experiment in a line: Antifungal activity against mepronil-resistant Rhizoctonia solani ZJR2 after 2 days. It is filed as functional, organism-based. Conditions: ZJR2, 48 h.
Test [9] has as its system Rhizoctonia solani. The experiment in a line: Resistant factor, ratio of EC50 for mepronil-resistant Rhizoctonia solani ZJR1 to EC50 for mepronil-sensitive wild type Rhizoctonia solani ZJ-1. It is filed as functional.
In test [10] the test system is Rhizoctonia solani. The experiment in a line: Resistant factor, ratio of EC50 for mepronil-resistant Rhizoctonia solani JSR3 to EC50 for mepronil-sensitive wild type Rhizoctonia solani JS7. It counts as functional.
Test [11] concerns Rhizoctonia solani. The experiment in a line: Resistant factor, ratio of EC50 for mepronil-resistant Rhizoctonia solani JSR2 to EC50 for mepronil-sensitive wild type Rhizoctonia solani JS7. It counts as functional.
In test [12] the test system is Rhizoctonia solani. The experiment in a line: Resistant factor, ratio of EC50 for mepronil-resistant Rhizoctonia solani ZJR3 to EC50 for mepronil-sensitive wild type Rhizoctonia solani ZJ-1. It counts as functional.
In test [13] the test system is Rhizoctonia solani. The experiment in a line: Resistant factor, ratio of EC50 for mepronil-resistant Rhizoctonia solani ZJR2 to EC50 for mepronil-sensitive wild type Rhizoctonia solani ZJ-1. It is filed as functional.
Test [14] relates to Rhizoctonia solani. The experiment in a line: Resistant factor, ratio of EC50 for mepronil-resistant Rhizoctonia solani JSR1 to EC50 for mepronil-sensitive wild type Rhizoctonia solani JS7. It is filed as functional.

With `CO/C=C(/C(=O)OC)c1ccccc1Oc1cc(Oc2ccccc2C#N)ncn1` [AZOXYSTROBIN], the EC50 with Rhizoctonia solani [1] stood at 0.32 µg/mL (≈ 0.793 µM); in the test on Rhizoctonia solani [2], 0.32 µg/mL (≈ 0.793 µM); with Rhizoctonia solani [3], 0.32 µg/mL (≈ 0.793 µM); with Rhizoctonia solani [4], 0.19 µg/mL (≈ 0.471 µM); in the test on Rhizoctonia solani [5] it was 0.18 µg/mL (≈ 0.446 µM); in the test with Rhizoctonia solani [6] it was 0.17 µg/mL (≈ 0.421 µM). In addition, the EC50 in the test on Rhizoctonia solani [7] was 0.19 µg/mL (≈ 0.471 µM); with Rhizoctonia solani [8] it was 0.34 µg/mL (≈ 0.843 µM).

As for `O=C(Nc1ccccc1-c1ccc(Cl)cc1)c1cccnc1Cl` [BOSCALID], the EC50 stood at 1.87 µg/mL (≈ 5.45 µM) in the test with Rhizoctonia solani [1]; 1.98 µg/mL (≈ 5.77 µM) in the test with Rhizoctonia solani [2]; 1.93 µg/mL (≈ 5.62 µM) in the test on Rhizoctonia solani [3]; 2.08 µg/mL (≈ 6.06 µM) in the test on Rhizoctonia solani [4]; 2.13 µg/mL (≈ 6.21 µM) in the test on Rhizoctonia solani [5]; 2.26 µg/mL (≈ 6.58 µM) in the test with Rhizoctonia solani [6]. The EC50 with Rhizoctonia solani [7] and in the test with Rhizoctonia solani [8] was 2.15 µg/mL (≈ 6.26 µM) in each case.

For the compound `CO/N=C(/C(=O)OC)c1ccccc1COc1ccccc1C` [KRESOXIM-METHYL], the EC50 in the test with Rhizoctonia solani [1] worked out at 0.33 µg/mL (≈ 1.05 µM); with Rhizoctonia solani [2], 0.34 µg/mL (≈ 1.09 µM); in the test with Rhizoctonia solani [3], 0.37 µg/mL (≈ 1.18 µM); in the test with Rhizoctonia solani [4], 0.16 µg/mL (≈ 0.511 µM); in the test on Rhizoctonia solani [5] it was 0.14 µg/mL (≈ 0.447 µM); with Rhizoctonia solani [6], 0.2 µg/mL (≈ 0.638 µM). Further, the EC50 in the test with Rhizoctonia solani [7] was determined as 0.16 µg/mL (≈ 0.511 µM); in the test with Rhizoctonia solani [8], 0.29 µg/mL (≈ 0.925 µM).

As to `Cc1ccccc1C(=O)Nc1cccc(OC(C)C)c1` [MEPRONIL], the “Ratio EC50” value in the test with Rhizoctonia solani [9] is given as 116.7; in the test with Rhizoctonia solani [10], 209.8; with Rhizoctonia solani [11], 144.5; in the test on Rhizoctonia solani [12] it was 179.5; in the test with Rhizoctonia solani [13], 109.2; with Rhizoctonia solani [14] it was 87.3. The EC50 was 13.5 µg/mL (≈ 50.3 µM) with Rhizoctonia solani [1]; 20.8 µg/mL (≈ 77.3 µM) in the test with Rhizoctonia solani [3]; 20.6 µg/mL (≈ 76.3 µM) with Rhizoctonia solani [4]; 14.2 µg/mL (≈ 52.6 µM) in the test with Rhizoctonia solani [5]; 8.56 µg/mL (≈ 31.8 µM) in the test with Rhizoctonia solani [6]; 0.098 µg/mL (≈ 0.364 µM) in the test on Rhizoctonia solani [7]. Further, the EC50 in the test with Rhizoctonia solani [8] was found to be 12.7 µg/mL (≈ 47 µM).

As to `OCC1=C[C@H](N[C@H]2C[C@H](CO)[C@@H](O[C@@H]3O[C@H](CO)[C@@H](O)[C@H](O)[C@H]3O)[C@H](O)[C@H]2O)[C@H](O)[C@@H](O)[C@@H]1O` [VALIDAMYCIN], the EC50 in the test with Rhizoctonia solani [1] worked out at 0.08 µg/mL (≈ 0.161 µM); in the test with Rhizoctonia solani [2], 0.09 µg/mL (≈ 0.181 µM); in the test with Rhizoctonia solani [3], 0.1 µg/mL (≈ 0.201 µM); with Rhizoctonia solani [4], 0.14 µg/mL (≈ 0.281 µM); with Rhizoctonia solani [5], 0.18 µg/mL (≈ 0.362 µM); with Rhizoctonia solani [6], 0.16 µg/mL (≈ 0.322 µM). Besides, the EC50 was determined as 0.18 µg/mL (≈ 0.362 µM) with Rhizoctonia solani [7] and 0.09 µg/mL (≈ 0.181 µM) in the test on Rhizoctonia solani [8].
